According to publication PMC8949366, “Synthesis of Marine Cyclopeptide Galaxamide Analogues as Potential Anticancer Agents” (Marine Drugs, 2022):
Values after ≈ are worked out from the molar mass of the structure shown. “Also recorded” adds a separate entry of the source. Square brackets hold non-standard residues; d marks the D form. Peptide text beside a SMILES is read from it. NMeL = CN[C@@H](CC(C)C)C(=O)O

How the values were obtained:
A549 = type: cell-based, human; conditions: 72 h
Method: (§1) Cell culture: MCF-7/MD-MAB-231 (human breast cancer cell line ATCC HTB-22/HTB-26), Hep G2 (human liver cancer cell line ATCC HB-8065), Hela (human cervical carcinoma cell line ATCC CCL-2), A459 (human lung cancer cell line ATCC CCL-185), and HUVEC (primary umbilical vein endothelial cell line ATCC PCS-100-010) were obtained from the Jinan Department of Pathology, University School of Medicine (Jinan University, Guangzhou, China). The cells were cultured in a Modified Eagle’s Medium (DMEM) including 10% fetal bovine serum, 1% penicillin-streptomycin, and antifungal agent, and cultured under standard conditions (5% CO2 atmosphere and temperature at 37 °C). The MTT method was used to evaluate the cytotoxicities of galaxamide and its analogues on the five cancerous cells. In this experiment, the number of regulated cells was 2 × 10^3 cells/well. Then, the cells, as well as galaxamide and its analogues of different concentrations (0, 2.5, 5, and 10 μg/mL), were seeded on a 96-well cell culture plate and cultured in a 37 °C, 5% CO2 incubator for 72 h. After that, 20 µL/well of MTT solution (5 mg/mL phosphate-buffered saline) was added and incubated for 5 h. The medium was discarded and replaced with 100 µL/well of DMSO to dissolve the formazan salt. The color intensity of the cell culture at 570 nm was measured using a microplate spectrophotometer (SpectroAma™ 250, Winooski, VT, USA).

HUVEC = type: cell-based, human; conditions: 72 h
Method: as §1

Hela = type: cell-based, human; conditions: 72 h
Method: as §1

HepG2 [1] = type: cell-based, human; conditions: 72 h
Method: as §1

MCF-7 = type: cell-based, human; conditions: 72 h
Method: as §1

MD-MBA-231 = type: cell-based, human; conditions: 72 h
Method: as §1

MCF-7 cells [2] = assay: Cell cycle distribution by propidium iodide staining / flow cytometry; type: cell-based, human; conditions: 0, 2.5, 5, 10 µg/mL, 72 h
Method: Therefore, propidium iodide (PI) staining method was used to further investigate the changes in the cell cycle distribution of MCF-7. In particular, MCF-7 cells were exposed to galaxamide, Z-3, and Z-6 with concentrations of 0, 2.5, 5, and 10 µg/mL for 72 h. Generally, the main effects of galaxamide, Z-3, and Z-6 on MCF-7 cells were in the G0/G1 phase. There was no obvious sub diploid peak in flow cytometry.
(§2) The concentration of 1 × 10^4 cells per well of MCF-7 cells were seeded in 96-well plates. The cell cultures were added to the compounds with a concentration of 0, 2.5, 5, and 10 µg/mL, and incubated for 72 h. After that, 5 µL of Annexin V-fluorescein isothiocyanate (FITC) and 5 µL of PI were added for dual staining of the cells for analysis by FACS flow cytometry. Cell cycles and apoptotic cells were determined by counting the FITC-positive and PI-negative fractions.

MCF-7 cells [3] = assay: Annexin V-FITC/PI double staining apoptosis, flow cytometry; type: cell-based, human; conditions: 0, 2.5, 5, 10 µg/mL, 72 h
Method: The Annexin V-FITC/PI double staining method was used to analyze the changes in the apoptosis of MCF-7 cells after 72 h of galaxamide, Z-3, and Z-6 exposure. […] At low concentrations, the effects of all the tested compounds were not obvious. When the concentration reached 10 μg/mL, the apoptotic effects of galaxamide, Z-3, and Z-6 on MCF-7 cells were more obvious in the late apoptotic state.
as §2
The apoptotic cells were quantified according to the instructions provided in an Annexin V-FITC (Sigma-Aldrich, St. Louis, MO, USA) cell apoptosis assay kit. Briefly, about 1.5 × 10^5 cells were plated in 96-well plates and treated with galaxamide and its representative analogues (0, 2.5, 5, and 10 µg/mL) for 48 h. The cells were then resuspended in a […] binding buffer. Afterward, […] of annexin V-fluorescein isothiocyanate (FITC) was added, followed by incubation in darkness at room temperature for 10 min. The cells were again resuspended in […] binding buffer and stained with […] PI. The prepared cells were then analyzed using a flow cytometry (Coulter Epics Elite, Miami, FL, USA). The cells in the FITC-positive and PI-negative fractions were regarded as apoptotic cells.

MCF-7 cells [4] = assay: Hoechst 33,342 staining of nuclear morphology; type: cell-based, human; conditions: 72 h
Method: The morphological alteration of MCF-7 cells was analyzed by the method of Hoechst 33,342 staining (Figure 5). […] The pyknotic nuclei increased with the increasing concentration of these compounds.
[…] After that, the cell culture was washed with 1 mL of PBS and then added with 3 mL of 4% paraformaldehyde solution for 15 min. Then, 1 mL of the prepared Hoechst 33,342 staining solution was added. The resulting mixture was incubated at room temperature for 15 min in the dark.

GRC-1 = system: GRC-1; design: method as in PMID 18816120; conditions: cited from earlier work
HepG2 [5] = system: HepG2; design: method as in PMID 18816120; conditions: cited from earlier work

SMILES	IC50 A549 (A549) [µg/mL]	IC50 HUVEC (HUVEC) [µg/mL]	IC50 Hela (Hela) [µg/mL]	IC50 HepG2 (HepG2 [1]) [µg/mL]	IC50 MCF-7 (MCF-7) [µg/mL]	IC50 MD-MBA-231 (MD-MBA-231) [µg/mL]	Effect on cell cycle of MCF-7 (in words) (MCF-7 cells [2])	Apoptosis of MCF-7 cells (in words) (MCF-7 cells [3])	Nuclear morphology of MCF-7 cells (in words) (MCF-7 cells [4])	Antitumor activity against GRC-1 (in words) (GRC-1)	Antitumor activity against HepG2 (in words) (HepG2 [5])
CC(C)C[C@@H]1NC(=O)[C@@H](CC(C)C)NC(=O)[C@@H]2CCCN2C(=O)[C@H](CC(C)C)NC(=O)[C@@H]2CCCN2C1=O [Compound Z-3, Cyclo (Leu-Pro-Leu-Pro-Leu)] (cyclo(LPLP[dL]))	6.43 ± 0.43 (≈ 12 µM)	>40	5.57 ± 0.45 (≈ 10.4 µM)	5.05 ± 0.45 (≈ 9.46 µM)	2.25 ± 0.42 (≈ 4.22 µM)	6.34 ± 0.60 (≈ 11.9 µM)	mainly blocked the growth of cells in the G0/G1 phase	significantly higher than those of galaxamide; also recorded: concentration-dependent apoptosis	the morphology of the nuclei was significantly changed		
CC(C)C[C@@H]1NC(=O)[C@H](CC(C)C)N(C)C(=O)[C@H](CC(C)C)NC(=O)[C@H](CC(C)C)N(C)C(=O)[C@H](CC(C)C)NC1=O [galaxamide] (cyclo(LL[NMeL]L[NMeL]))	6.99 ± 0.63 (≈ 11.8 µM)	>40	8.53 ± 0.73 (≈ 14.4 µM)	5.20 ± 0.52 (≈ 8.76 µM)	11.33 ± 2.95 (≈ 19.1 µM)	8.73 ± 0.29 (≈ 14.7 µM)	mainly blocked the growth of cells in the G0/G1 phase	apoptosis rate of MCF-7 increased with the increasing of the concentration	the morphology of the nuclei was significantly changed	significant antitumor activities	significant antitumor activities
